Results on seven compounds are retold here after publication PMC4220016, “The binding characteristics and orientation of a novel radioligand with distinct properties at 5-HT3A and 5-HT3AB receptors” (Neuropharmacology, 2014).

Where two headings read alike, the source gives them in different places.

One assay concerns the target T1, 5-HT3AB receptors (Homo sapiens, UniProt O95264+P46098).
T1 sequence (P46098 24-478): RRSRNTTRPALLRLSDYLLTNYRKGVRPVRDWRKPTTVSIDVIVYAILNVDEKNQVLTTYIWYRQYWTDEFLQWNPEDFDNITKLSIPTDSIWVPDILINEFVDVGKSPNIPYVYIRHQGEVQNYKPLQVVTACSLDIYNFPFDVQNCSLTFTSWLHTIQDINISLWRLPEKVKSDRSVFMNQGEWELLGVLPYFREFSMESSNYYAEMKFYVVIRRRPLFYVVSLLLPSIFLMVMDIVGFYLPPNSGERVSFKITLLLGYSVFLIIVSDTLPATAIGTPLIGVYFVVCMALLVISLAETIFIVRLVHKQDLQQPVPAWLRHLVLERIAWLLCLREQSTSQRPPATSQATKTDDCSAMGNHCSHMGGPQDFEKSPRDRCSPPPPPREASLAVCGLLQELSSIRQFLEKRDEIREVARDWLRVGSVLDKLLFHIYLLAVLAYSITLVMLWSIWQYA
T1 sequence (O95264 22-441): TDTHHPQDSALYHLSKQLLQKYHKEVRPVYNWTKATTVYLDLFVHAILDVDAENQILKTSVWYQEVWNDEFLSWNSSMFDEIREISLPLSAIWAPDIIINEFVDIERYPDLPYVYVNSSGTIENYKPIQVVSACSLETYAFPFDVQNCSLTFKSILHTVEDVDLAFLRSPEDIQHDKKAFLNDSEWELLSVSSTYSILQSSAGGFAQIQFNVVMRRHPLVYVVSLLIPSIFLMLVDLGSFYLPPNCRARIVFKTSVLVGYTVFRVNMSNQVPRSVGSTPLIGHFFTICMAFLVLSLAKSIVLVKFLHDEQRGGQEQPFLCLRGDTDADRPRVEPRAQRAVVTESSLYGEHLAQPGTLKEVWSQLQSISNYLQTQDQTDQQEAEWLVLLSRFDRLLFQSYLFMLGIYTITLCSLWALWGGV
As to the kind of experiment: Competition binding with [^3H]VUF10166 at 5-HT3AB receptors.

Another assay deals with T2, 5-HT3A receptors (Homo sapiens, UniProt P46098).
T2 sequence (P46098 24-478): T1 sequence (P46098 24-478)
In words: Competition binding with [^3H]VUF10166 at 5-HT3A receptors.

For the compound `CC(=O)OCC[N+](C)(C)C` [ACh], the “inhibition of specific [^3H]VUF10166 binding (in words)” value (“inhibition of specific” below) on 5-HT3AB receptors (5-HT3AB) and at 5-HT3A receptors (5-HT3A) was “not” in each case.
In the case of `CN1CCc2cc3c(cc2[C@H]1[C@@H]1OC(=O)c2c1ccc1c2OCO1)OCO3` [Bicuculline], the “inhibition of specific” value on 5-HT3AB receptors and on 5-HT3A receptors was “not” each time.
As for `CC(C)(C)[C@]1(O)CC2OC(=O)CC23C(=O)OC2OC(=O)[C@H](O)C231` (some centres unmarked) [Bilobalide], the “inhibition of specific” value at 5-HT3AB receptors is “not”; at 5-HT3A receptors, “not and unaffected”.
For the compound `COc1ccc(-c2ccc(=N)n(CCCC(=O)O)n2)cc1` [Gabazine], the “inhibition of specific” value on 5-HT3AB receptors (5-HT3AB) and at 5-HT3A receptors (5-HT3A) was “not” in each case.
For the compound `CC1C(=O)O[C@H]2[C@H](O)[C@@]34[C@H]5C[C@@H](C(C)(C)C)[C@@]36C(O)C(=O)O[C@H]6O[C@@]4(C(=O)O5)[C@@]12O` (some centres unmarked) [Ginkgolide], the “inhibition of specific” value is “not” on 5-HT3AB receptors; “not and unaffected” on 5-HT3A receptors.
Take `NCC(=O)O` [Glycine]: the “inhibition of specific” value at 5-HT3AB receptors (5-HT3AB) and at 5-HT3A receptors (5-HT3A) was “not” throughout.
With `CN1[C@@H]2CC[C@H]1C[C@@H](OC(=O)c1cc(Cl)cc(Cl)c1)C2` [MDL72222], the “inhibition of specific” value at 5-HT3AB receptors and at 5-HT3A receptors was “inhibited” each time.
